From patent publication US20260083686A1, “METHODS FOR SUPPRESSING ACCUMULATION OF REFLUX-INDUCED PROTEIN ADDUCTS” (Vanderbilt University, priority 2018, published 2026)
Entries after “also recorded” stand apart in the source; their conditions may differ.

Experiments:
[1] = tested on: p53 isoLG protein adducts in EPC-2 cells; test: p53 immunoprecipitation and Western blot with D11 antibody for p53 isoLG adducts in BA/A-treated EPC-2 cells; assay type: cell-based, human; settings: 2-HOBA 50 μM, p53 (DO-1) immunoprecipitation, D11 Western blot
Procedure: To directly analyze p53 protein adducts, cellular lysates of EPC-2 cells, which were treated with BA/A in the presence or absence of 2-HOBA, were immunoprecipitated with p53 antibody. The immunoprecipitated p53 protein was then analyzed for the isoLG adducts by Western blotting with isoLG-specific D11 antibody.
Treatment With Acidic Bile Salts (BA/A) and 2-HOBA: Cells were treated in acidic DMEM media (pH 4.0), containing bile salts cocktail at final concentration of 100 μM. The bile salt cocktail was prepared with a combination of glycocholic, taurocholic, glycodeoxycholic, glycochenodeoxycholic and deoxycholic sodium salts (all reagents were from Sigma-Aldrich, St. Louis, MO) at a concentration of 20 μM each. TE-7 and HET-1A cells were treated for 30 minutes, whereas, EPC-2 cells were treated for 15 minutes and then the media was replaced. […]
For immunoprecipitation, cells were harvested by centrifugation at 200 g for 5 minutes and resuspended in PBS with protease inhibitor cocktail. […] The immunoprecipitated samples were analyzed by Western blotting with D11 antibody and anti-E tag HRP-conjugated antibodies from Abcam. The analyzed membranes were stripped in Restore™ Western Blot Stripping Buffer (ThermoFisher Scientific, Waltham, MA) at +50° C. for 1 hour, washed, and blocked with 5% milk and analyzed by Western blotting with p53 (DO1) antibody.

[2] = tested on: isoLG protein adducts (LG-lysine lactam) in TE-7 cells; test: LG-lysine lactam adducts by LC/ESI/MS/MS in TE-7 cells treated with acidic bile salts (BA/A); assay type: cell-based, human; settings: BA/A 100 μM pH 4.0 for 30 min, 2-HOBA 50 μM
Text: Formation of LG-lysine adducts was further verified by quantification of the LG-lysyl lactam adducts using liquid chromatography-electrospray ionization-tandem mass spectrometry (LC/ESI/MS/MS) in TE-7 cells treated with BA/A. Our studies confirmed that levels of LG-lysine lactam adduct are higher in BA/A treated than control samples. Our quantification analyses were based on specific transitions from the molecular ion at m/z=479.2 to the specific fragment at m/z=332.1. The elution of the two fragment ions found in BA/A treated samples was similar to the [13C6]lysine-lactam internal standard (FIG. 2A). As an additional control, TE-7 cells were treated with BA/A as above but in the presence of known isoLG scavenger 2-hydroxybenzylamine (2HOBA) and analyzed by mass spectrometry.
Cell Lines: Human non-tumorous esophageal cell line (HET-1A) and human esophageal carcinoma cell line (TE-7) were purchased from ATCC. The morphology, karyotyping and PCR based techniques were used by ATCC to confirm the cell line identity. […]
Detection of Levuglandinyl-Lysine Lactam Using Liquid Chromatography/Electrospray Ionization/Tandem Mass Spectrometry (LC/ESI/MS/MS): Levuglandinyl-lysine lactam was analyzed in TE-7 cells treated with acidic bile salts and control untreated cells using LC/ESI/MS/MS. […]

[3] = tested on: isoLG protein adducts in esophageal tissues; test: Surgical (esophagojejunostomy) reflux model in mice, isoLG adducts by immunohistochemistry with D11 antibody; assay type: in vivo; settings: 2-HOBA 1 mg/ml in drinking water for 10 days; for accumulation of isoLG adducts in esophageal tissues in vivo: mice with surgically induced reflux
Text: To investigate the formation of isoLG protein adducts in the esophagus, The present inventors used a surgical model of esophageal reflux injury. To generate animals with reflux, a section of the mouse jejunum was transected and then anastomosed to the esophagus resulting in an increased reflux. […] Using immunohistochemistry with D11 antibody, the present inventors compared levels of isoLG protein adducts in esophageal epithelia of animals with reflux induced by surgery and control animals with sham surgery. Levels of isoLG adducts were also analyzed in surgical animals treated with isoLG scavenger 2-HOBA for 10 days. The present inventors found significant accumulation of isoLG protein adducts in esophageal animal tissues affected by reflux.
Induction of Reflux in Mice: Reflux was induced by surgical procedure, esophagojejunal anastomosis, as previously described. Esophagojejunostomy was performed on fourteen 8-week-old 129SV mice according to the protocol approved by the Vanderbilt University Animal Care and Use Committee. Animals were then be allowed a 2-weeks recovery period on regular rodent chow ad libitum prior to were randomly assigned into two groups. First group of 7 mice with surgery was treated with 2-HOBA (1 mg/ml) delivered in drinking water for 10 days, while a control group (7 surgical animals) only received water. Additional control group of 5 animals with sham surgery received water. The esophagus and gastroesophageal junction areas from the test and control groups of animals were harvested, paraffin-embedded and analyzed by immunohistochemistry with D11 antibody. Indices of D11 positivity were scored and compared in test and control groups of animals.

## NCc1ccccc1O [2-HOBA, 2-hydroxybenzylamine]
[1]
  formation of p53 isoLG protein adducts: significantly inhibited formation of p53 protein adducts; also recorded: inhibited the formation of p53 protein adducts
[2]
  formation of isoLG protein adducts (LG-lysine lactam adduct levels): higher in BA/A-treated samples compared to control and treated with isoLG scavenger 2-HOBA
[2]; listed as 2HOBA
  formation of isoLG protein adducts (LG-lysine lactam adduct levels): inhibited formation of isoLG protein adducts
[3]
  accumulation of isoLG adducts in esophageal tissues in vivo: efficiently decreased isoLG protein adducts in mice in vivo; also recorded: prevents accumulation of isoLG adducts in vivo; also recorded: inhibited accumulation of isoLG adducts in vivo
[3]; listed as 2HOBA
  accumulation of isoLG adducts in esophageal tissues in vivo: efficiently suppresses accumulation of reflux-induced protein adducts in vitro and in vivo
[3]; mice
  isoLG adducts: surgical animals treated with 2-HOBA versus sham control animals: did not find significant difference
